Measurements as given in patent publication US10239869B2, “Sulfonamide compounds as voltage-gated sodium channel modulators” (LUPIN LIMITED, priority 2015, dated 2019).
Like-named read-outs stand apart in the source and are kept apart here.

Experiments:
Nav 1.7 = Nav 1.7 (Homo sapiens (Human), UniProt Q15858); test: Inhibition of sodium channels, Red Membrane Potential Dye FLIPR assay, veratridine depolarization; type: cell-based; conditions: HEK-293 cells overexpressing the channel; for IC50: read-out: Nav1.7 IC50
Sequence of Nav 1.7 (Q15858 whole entry): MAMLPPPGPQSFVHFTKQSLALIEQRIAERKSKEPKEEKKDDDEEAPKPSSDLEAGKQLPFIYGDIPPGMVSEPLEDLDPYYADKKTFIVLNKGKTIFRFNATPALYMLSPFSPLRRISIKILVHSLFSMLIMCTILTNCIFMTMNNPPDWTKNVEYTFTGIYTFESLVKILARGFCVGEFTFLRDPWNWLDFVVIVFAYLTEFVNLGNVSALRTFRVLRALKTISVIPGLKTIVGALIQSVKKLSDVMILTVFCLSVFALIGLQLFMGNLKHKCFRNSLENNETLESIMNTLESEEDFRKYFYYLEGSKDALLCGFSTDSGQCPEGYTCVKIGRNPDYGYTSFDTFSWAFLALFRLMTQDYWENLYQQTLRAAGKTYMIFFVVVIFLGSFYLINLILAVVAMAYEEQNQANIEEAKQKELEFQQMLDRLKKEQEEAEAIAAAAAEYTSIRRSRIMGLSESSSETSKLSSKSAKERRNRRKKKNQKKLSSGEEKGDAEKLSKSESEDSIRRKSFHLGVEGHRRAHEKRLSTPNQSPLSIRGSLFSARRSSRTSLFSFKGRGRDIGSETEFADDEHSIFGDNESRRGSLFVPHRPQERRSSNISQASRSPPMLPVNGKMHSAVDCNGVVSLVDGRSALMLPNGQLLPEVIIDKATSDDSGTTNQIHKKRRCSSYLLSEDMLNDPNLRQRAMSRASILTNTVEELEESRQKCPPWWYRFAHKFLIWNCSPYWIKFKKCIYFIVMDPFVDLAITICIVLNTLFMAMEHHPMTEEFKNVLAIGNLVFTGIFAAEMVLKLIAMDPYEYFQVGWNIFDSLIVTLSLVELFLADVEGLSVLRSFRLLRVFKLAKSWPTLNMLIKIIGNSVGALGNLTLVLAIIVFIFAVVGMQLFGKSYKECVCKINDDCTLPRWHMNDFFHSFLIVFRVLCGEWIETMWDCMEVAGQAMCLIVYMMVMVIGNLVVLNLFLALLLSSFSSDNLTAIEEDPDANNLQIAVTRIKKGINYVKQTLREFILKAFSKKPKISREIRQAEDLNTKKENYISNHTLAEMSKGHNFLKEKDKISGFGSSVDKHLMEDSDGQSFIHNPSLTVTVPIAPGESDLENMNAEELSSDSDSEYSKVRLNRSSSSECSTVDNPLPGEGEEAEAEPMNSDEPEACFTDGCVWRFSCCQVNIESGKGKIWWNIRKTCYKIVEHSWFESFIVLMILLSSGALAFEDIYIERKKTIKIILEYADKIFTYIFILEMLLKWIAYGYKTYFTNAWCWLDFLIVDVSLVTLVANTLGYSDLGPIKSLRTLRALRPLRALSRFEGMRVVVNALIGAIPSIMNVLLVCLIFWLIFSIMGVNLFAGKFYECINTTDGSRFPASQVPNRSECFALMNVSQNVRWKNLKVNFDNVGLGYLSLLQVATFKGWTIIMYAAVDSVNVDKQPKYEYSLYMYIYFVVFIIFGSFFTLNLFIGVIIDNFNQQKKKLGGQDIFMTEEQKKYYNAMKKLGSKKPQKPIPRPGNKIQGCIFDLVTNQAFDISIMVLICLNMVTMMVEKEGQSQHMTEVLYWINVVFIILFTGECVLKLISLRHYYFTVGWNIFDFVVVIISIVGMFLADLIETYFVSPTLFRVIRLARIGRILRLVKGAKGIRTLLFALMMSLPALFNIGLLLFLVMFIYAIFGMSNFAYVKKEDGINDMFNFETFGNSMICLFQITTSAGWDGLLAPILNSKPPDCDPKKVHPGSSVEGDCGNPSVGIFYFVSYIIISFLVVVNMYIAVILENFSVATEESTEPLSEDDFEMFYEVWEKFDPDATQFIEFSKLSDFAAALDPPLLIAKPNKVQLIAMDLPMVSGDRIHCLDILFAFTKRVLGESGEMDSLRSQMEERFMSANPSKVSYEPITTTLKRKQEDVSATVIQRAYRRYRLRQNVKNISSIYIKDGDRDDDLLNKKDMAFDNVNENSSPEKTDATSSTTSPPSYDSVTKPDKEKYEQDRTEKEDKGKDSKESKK

Nav 1.5 = Nav 1.5 (Homo sapiens (Human), UniProt Q14524); test: as above; type: cell-based; conditions: HEK-293 cells overexpressing the channel; for inhibition at 10 µM: HEK-293 cells overexpressing Nav 1.5
Sequence of Nav 1.5 (Q14524 whole entry): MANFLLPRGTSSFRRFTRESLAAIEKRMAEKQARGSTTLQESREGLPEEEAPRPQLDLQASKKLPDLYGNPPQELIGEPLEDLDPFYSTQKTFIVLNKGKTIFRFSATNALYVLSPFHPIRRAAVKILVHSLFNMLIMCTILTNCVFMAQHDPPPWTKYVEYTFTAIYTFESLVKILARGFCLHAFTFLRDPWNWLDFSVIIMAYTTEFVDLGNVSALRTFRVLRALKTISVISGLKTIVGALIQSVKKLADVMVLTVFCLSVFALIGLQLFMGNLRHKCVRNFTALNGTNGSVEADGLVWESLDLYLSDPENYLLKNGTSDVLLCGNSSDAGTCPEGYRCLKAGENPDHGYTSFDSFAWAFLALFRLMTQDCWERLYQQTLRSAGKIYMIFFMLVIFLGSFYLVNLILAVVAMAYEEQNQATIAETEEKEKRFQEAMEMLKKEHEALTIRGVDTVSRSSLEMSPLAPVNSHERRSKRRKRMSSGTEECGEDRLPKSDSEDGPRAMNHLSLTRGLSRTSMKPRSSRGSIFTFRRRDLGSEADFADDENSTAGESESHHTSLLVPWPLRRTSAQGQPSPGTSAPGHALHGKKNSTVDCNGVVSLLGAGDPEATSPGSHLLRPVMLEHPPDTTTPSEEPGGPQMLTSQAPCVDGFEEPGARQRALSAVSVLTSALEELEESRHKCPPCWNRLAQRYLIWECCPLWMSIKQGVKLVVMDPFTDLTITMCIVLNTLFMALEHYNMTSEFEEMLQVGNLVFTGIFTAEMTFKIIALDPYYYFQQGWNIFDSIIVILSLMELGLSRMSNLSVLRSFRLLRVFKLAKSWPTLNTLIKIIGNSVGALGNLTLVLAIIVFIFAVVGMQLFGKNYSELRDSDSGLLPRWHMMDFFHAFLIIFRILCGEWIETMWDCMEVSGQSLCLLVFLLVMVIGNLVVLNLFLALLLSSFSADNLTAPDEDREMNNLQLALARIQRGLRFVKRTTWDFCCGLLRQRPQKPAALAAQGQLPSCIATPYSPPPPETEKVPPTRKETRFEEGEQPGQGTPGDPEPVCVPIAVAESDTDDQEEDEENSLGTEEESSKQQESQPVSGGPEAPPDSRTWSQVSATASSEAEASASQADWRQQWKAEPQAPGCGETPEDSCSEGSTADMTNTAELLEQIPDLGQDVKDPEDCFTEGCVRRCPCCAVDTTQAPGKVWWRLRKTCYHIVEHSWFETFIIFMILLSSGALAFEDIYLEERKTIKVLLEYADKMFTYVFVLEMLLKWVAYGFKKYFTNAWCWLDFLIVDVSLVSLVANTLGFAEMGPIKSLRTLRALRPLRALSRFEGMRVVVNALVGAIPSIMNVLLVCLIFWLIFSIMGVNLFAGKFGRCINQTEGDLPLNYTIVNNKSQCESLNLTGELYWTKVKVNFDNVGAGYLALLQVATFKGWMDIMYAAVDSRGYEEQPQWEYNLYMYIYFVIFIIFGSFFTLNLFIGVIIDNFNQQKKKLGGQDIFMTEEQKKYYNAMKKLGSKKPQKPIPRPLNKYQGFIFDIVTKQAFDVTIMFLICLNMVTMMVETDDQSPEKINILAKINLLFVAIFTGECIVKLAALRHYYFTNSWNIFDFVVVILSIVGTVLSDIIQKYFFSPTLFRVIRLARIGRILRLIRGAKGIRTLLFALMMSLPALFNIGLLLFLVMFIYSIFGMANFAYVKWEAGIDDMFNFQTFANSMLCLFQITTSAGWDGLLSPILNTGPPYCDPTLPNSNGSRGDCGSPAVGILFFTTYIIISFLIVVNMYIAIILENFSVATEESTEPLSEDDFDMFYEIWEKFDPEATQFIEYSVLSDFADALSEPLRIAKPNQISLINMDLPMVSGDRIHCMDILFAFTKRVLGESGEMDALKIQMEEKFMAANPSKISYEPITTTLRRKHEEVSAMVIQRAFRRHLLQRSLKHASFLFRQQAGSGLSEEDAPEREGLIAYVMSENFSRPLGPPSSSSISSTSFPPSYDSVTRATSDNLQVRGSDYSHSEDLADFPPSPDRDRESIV

[1] = read-out: Nav1.5 IC50 (bound given in μM)

| Compound | IC50 (Nav 1.5; [1]) [µM] | IC50 (Nav 1.7) [nM] | other results |
| --- | --- | --- | --- |
| Cn1nccc1-c1cc(C(F)(F)F)ccc1[C@@H]1CCOc2cc(S(=O)(=O)Nc3ncccc3F)ccc21 [Example 17, (S&R)—N-(3-Fluoropyridin-2-yl)-4-(2-(1-methyl-1H-pyrazol-5-yl)-4-(trifluoromethyl)phenyl)chromane-7-sulfonamide] | > 10 |  | Nav1.7 inhibition @ 10 μM (Nav 1.7): 96% |
| COCCCc1cc(C(F)(F)F)ccc1[C@H]1CCOc2cc(S(=O)(=O)Nc3cccc(F)n3)ccc21 (racemic) [Example 145, (R/S)—N-(6-fluoropyridin-2-yl)-4-(2-(3-methoxypropyl)-4-(trifluoromethyl)phenyl)chroman-7-sulfonamide] |  | 19 | IC50 (Nav 1.5; read-out: Nav1.5 IC50): 2.41 µM |
| CC(C)Oc1ccc(-c2cc(C(F)(F)F)ccc2[C@@H]2CCOc3cc(S(=O)(=O)Nc4ncccn4)ccc32)cn1 [Example 97, (S&R)-4-(2-(6-isopropoxypyridin-3-yl)-4-(trifluoromethyl)phenyl)-N-(pyrimidin-2-yl)chroman-7-sulfonamide] |  | 170 | Nav1.5 % inhibition @ 10 μM (Nav 1.5): 71% |
| Cc1nc(-c2cc(C(F)(F)F)ccc2[C@H]2CCOc3cc(S(=O)(=O)Nc4ncccn4)ccc32)cs1 [Example 64, (S&R)-4-(2-(2-Methylthiazol-4-yl)-4-(trifluoromethyl)phenyl)-N-(pyrimidin-2-yl)chroman-7-sulfonamide] | > 10 | 3 |  |
| CCOc1ccc(-c2cc(C(F)(F)F)ccc2[C@H]2CCOc3cc(S(=O)(=O)Nc4ncc(F)cn4)ccc32)cn1 [Example 102, (S&R)-4-(2-(6-ethoxypyridin-3-yl)-4-(trifluoromethyl)phenyl)-N-(5-fluoropyrimidin-2-yl)chroman-7-sulfonamide] | > 10 | 39 |  |
| O=C(O)c1ccc(-c2cc(C(F)(F)F)ccc2[C@H]2CCOc3cc(S(=O)(=O)Nc4cccc(F)n4)ccc32)cc1 (racemic) [Example-192, (R/S)-2′-(7-(N-(6-fluoropyridin-2-yl)sulfamoyl)chroman-4-yl)-5′-(trifluoromethyl)-[1,1′-biphenyl]-4-carboxylic acid] | > 10 | 8 |  |
| O=S(=O)(Nc1ncccn1)c1ccc2c(c1)OCCC2c1ccc(C(F)(F)F)cc1O[C@@H]1CCOC1 (stereo partly drawn) [Example-185, (S&R)—N-(pyrimidin-2-yl)-4-(2-(((R)-tetrahydrofuran-3-yl)oxy)-4-(trifluoromethyl)phenyl)chroman-7-sulfonamide] | > 10 | 1020 |  |
| O=C1CCCN1c1cc(C(F)(F)F)ccc1[C@H]1CCOc2cc(S(=O)(=O)Nc3cccnn3)ccc21 (racemic) [Example 117, (R/S)-4-(2-(2-oxopyrrolidin-1-yl)-4-(trifluoromethyl)phenyl)-N-(pyridazin-3-yl)chromane-7-sulfonamide] | > 10 | 106 |  |
| Cc1nc(-c2cc(C(F)(F)F)ccc2[C@H]2CCOc3cc(S(=O)(=O)Nc4cccc(F)n4)ccc32)ccc1F (racemic) [Example-225, (R/S)-4-(2-(5-fluoro-6-methylpyridin-2-yl)-4-(trifluoromethyl)phenyl)-N-(6-fluoropyridin-2-yl)chroman-7-sulfonamide] |  | 12 | IC50 (Nav 1.5; read-out: Nav1.5 IC50): 1.5 µM |
| Cc1nc(-c2cc(C(F)(F)F)ccc2[C@H]2CCOc3cc(S(=O)(=O)Nc4cccnn4)ccc32)co1 [Example 80, (S&R)-4-(2-(2-methyloxazol-4-yl)-4-(trifluoromethyl)phenyl)-N-(pyridazin-3-yl)chroman-7-sulfonamide] |  | 114 | Nav1.5 % inhibition @ 10 μM (Nav 1.5): 53% |
| CC(C)Oc1ccc([C@H]2CCOc3cc(S(=O)(=O)Nc4cccc(F)n4)ccc32)c(-c2ccnn2C)c1 [Example 34, (S&R)—N-(6-fluoropyridin-2-yl)-4-(4-isopropoxy-2-(1-methyl-1H-pyrazol-5-yl)phenyl)chroman-7-sulfonamide] | > 10 | 57 |  |
| O=S(=O)(Nc1ccncn1)c1ccc2c(c1)OCC[C@H]2c1ccc(C(F)(F)F)cc1OC1CCOCC1 [Example-172, (R&S)—N-(pyrimidin-4-yl)-4-(2-((tetrahydro-2H-pyran-4-yl)oxy)-4-(trifluoromethyl)phenyl)chroman-7-sulfonamide] | > 10 | 2740 |  |
| CCCc1cc(C(F)(F)F)ccc1[C@@H]1CCOc2cc(S(=O)(=O)Nc3cccc(F)n3)ccc21 [Example-244, (S&R)—N-(6-fluoropyridin-2-yl)-4-(2-propyl-4-(trifluoromethyl)phenyl)chroman-7-sulfonamide] |  | 474 | Nav1.5 % inhibition @ 10 μM (Nav 1.5): 69% |
| O=C1CCCN1c1cc(C(F)(F)F)ccc1[C@@H]1CCOc2cc(S(=O)(=O)Nc3cccc(F)n3)ccc21 [Example 111, (S&R)—N-(6-Fluoropyridin-2-yl)-4-(2-(2-oxopyrrolidin-1-yl)-4-(trifluoromethyl)phenyl)chroman-7-sulfonamide] |  | 814 | Nav1.5 % inhibition @ 10 μM (Nav 1.5): 67% |
| O=S(=O)(Nc1cccnn1)c1ccc2c(c1)OCC[C@@H]2c1ccc(C(F)(F)F)cc1O[C@H]1CCOC1 (racemic) [Example-184, (S/R)—N-(pyridazin-3-yl)-4-(2-(((S)-tetrahydrofuran-3-yl)oxy)-4-(trifluoromethyl)phenyl)chroman-7-sulfonamide] |  | 170 | inhibition at 10 µM (Nav 1.5): 67% |
| CCCc1cc(C(F)(F)F)ccc1C1CCOc2cc(S(=O)(=O)Nc3cccnn3)ccc21 (stereo not shown) [Example-242] |  | 1060 | IC50 (Nav 1.5; read-out: Nav1.5 IC50): 3.65 µM |
| COCCCCc1cc(C(F)(F)F)ccc1[C@H]1CCOc2cc(S(=O)(=O)Nc3ncc(F)cn3)ccc21 (racemic) [Example 148, (R/S)—N-(5-fluoropyrimidin-2-yl)-4-(2-(4-methoxybutyl)-4-(trifluoromethyl)phenyl)chroman-7-sulfonamide] | > 10 | 172 |  |
| O=C1CCCN1c1cc(C(F)(F)F)ccc1[C@H]1CCOc2cc(S(=O)(=O)Nc3ccncn3)ccc21 (racemic) [Example 116, (R/S)-4-(2-(2-oxopyrrolidin-1-yl)-4-(trifluoromethyl)phenyl)-N-(pyrimidin-4-yl)chroman-7-sulfonamide] | > 10 | 1960 |  |
| O=S(=O)(Nc1cccnn1)c1ccc2c(c1)OCC[C@@H]2c1ccc(C(F)(F)F)cc1-c1ccc(F)cn1 [Example-200, (S&R)-4-(2-(5-fluoropyridin-2-yl)-4-(trifluoromethyl)phenyl)-N-(pyridazin-3-yl)chroman-7-sulfonamide] | > 10 | 0.5 |  |
| O=S(=O)(Nc1cccnn1)c1ccc2c(c1)OCC[C@@H]2c1ccc(C(F)(F)F)cc1CCC(F)F (racemic) [Example-214, (R/S)-4-(2-(3,3-difluoropropyl)-4-(trifluoromethyl)phenyl)-N-(pyridazin-3-yl)chroman-7-sulfonamide] |  | 2 | IC50 (Nav 1.5; read-out: Nav1.5 IC50): 0.635 µM |
| COCCCOc1cc(C(F)(F)F)ccc1[C@@H]1CCOc2cc(S(=O)(=O)Nc3ncccn3)ccc21 [Example 130, (S&R)-4-(2-(3-methoxypropoxy)-4-(trifluoromethyl)phenyl)-N-(pyrimidin-2-yl)chroman-7-sulfonamide] | > 10 | 1690 |  |
| O=S(=O)(Nc1cccnn1)c1ccc2c(c1)OCC[C@@H]2c1ccc(C(F)(F)F)cc1CCF (racemic) [Example 156, (R/S)-4-(2-(2-fluoroethyl)-4-(trifluoromethyl)phenyl)-N-(pyridazin-3-yl)chroman-7-sulfonamide] |  | 42 | inhibition at 10 µM (Nav 1.5): 36% |
| COCCc1cc(C(F)(F)F)ccc1[C@H]1CCOc2cc(S(=O)(=O)Nc3ncc(F)cn3)ccc21 (racemic) [Example 136, (R/S)—N-(5-fluoropyrimidin-2-yl)-4-(2-(2-methoxyethyl)-4-(trifluoromethyl)phenyl)chroman-7-sulfonamide] |  | 655 | inhibition at 10 µM (Nav 1.5): 33% |
| O=S(=O)(Nc1cccc(F)n1)c1ccc2c(c1)OCC[C@@H]2c1ccc(C(F)(F)F)cc1CCCF (racemic) [Example 162, (R/S)-4-(2-(3-fluoropropyl)-4-(trifluoromethyl)phenyl)-N-(6-fluoropyridin-2-yl)chroman-7-sulfonamide] |  | 0.7 | IC50 (Nav 1.5; read-out: Nav1.5 IC50): 2.64 µM |
| O=S(=O)(Nc1cccc(F)n1)c1ccc2c(c1)OCC[C@@H]2c1ccc(C(F)(F)F)cc1CCF (racemic) [Example 157, (R/S)-4-(2-(2-fluoroethyl)-4-(trifluoromethyl)phenyl)-N-(6-fluoropyridin-2-yl)chroman-7-sulfonamide] | > 10 | 42 |  |
| Cc1ccnc(NS(=O)(=O)c2ccc3c(c2)OCC[C@@H]3c2ccc(C(F)(F)F)cc2-c2ccnn2C)c1 [Example 24, (S&R)-4-(2-(1-methyl-1H-pyrazol-5-yl)-4-(trifluoromethyl)phenyl)-N-(4-methylpyridin-2-yl)chroman-7-sulfonamide] |  | 816 | IC50 (Nav 1.5; read-out: Nav1.5 IC50): 3.92 µM |
| O=S(=O)(Nc1cccc(F)n1)c1ccc2c(c1)OCC[C@@H]2c1ccc(C(F)(F)F)cc1-n1cccn1 [Example 90, (S&R)-4-(2-(1H-pyrazol-1-yl)-4-(trifluoromethyl)phenyl)-N-(6-fluoropyridin-2-yl)chroman-7-sulfonamide] | > 10 | 15 |  |
| Cn1nccc1-c1cc(C(F)(F)F)ccc1[C@@H]1CCOc2cc(S(=O)(=O)Nc3cnccn3)ccc21 [Example 11, (S&R)-4-(2-(1-Methyl-1H-pyrazol-5-yl)-4-(trifluoromethyl)phenyl)-N-(pyrazin-2-yl) chromane-7-sulfonamide] | > 10 |  | Nav1.7 inhibition @ 10 μM (Nav 1.7): 96% |
| O=S(=O)(Nc1cccnn1)c1ccc2c(c1)OCC[C@@H]2c1ccc(C(F)(F)F)cc1-c1ccc(F)nc1 [Example 42, (S&R)-4-(2-(6-Fluoropyridin-3-yl)-4-(trifluoromethyl)phenyl)-N-(pyridazin-3-yl)chromane-7-sulfonamide] |  | 0.2 | IC50 (Nav 1.5; read-out: Nav1.5 IC50): 0.644 µM |
